Data published in US20220288057A1, “CONJOINT THERAPY FOR TREATING SEIZURE DISORDERS” (XENON PHARMACEUTICALS INC., priority 2021, published 2022).
Where “and” joins values, the source holds several entries; their conditions need not be identical. Identical values can stand only once. Like-named read-outs stand apart in the source and are kept apart here.

Assays:
[1] = system: CF-1 mouse; assay: Clinical observations / behavioral signs in AC-MES studies; format: in vivo
Protocol: Any qualitative changes from normal behavior were recorded.
Five oral (PO) doses of Compound A were each tested in the AC-MES model. Thirty minutes after administration of Compound A at 1 mg/kg (n=8), 3 mg/kg (n=8), 5 mg/kg (n=16), 7.5 mg/kg (n=7), and 10 mg/kg (n=17) via oral gavage to male CF-1 mice (body weights 28.2 to 43.8 g), the mice underwent a 60 Hz corneal electrical stimulus (0.2 seconds duration, 40 mA). This stimulus elicited a tonic hindlimb extension in all vehicle-dosed animals. […] An observational neurological assessment (qualitative test) was also conducted at the time of testing as a tolerability screen. Terminal plasma and brain samples were collected from all animals to obtain the levels of Compound A concentration, and to understand the relationship between efficacy and drug concentration.
(§1) The Blinding and Randomization, Clinical Observations, AC-MES Assay, Sample Collection and Preparation, Plasma and Brain Samples Analysis, and Bioanalysis Procedures in Example 4 were identical to those used in Example 2.

[2] = system: AC-MES-induced tonic seizures in CF-1 mice; assay: Mouse AC-MES assay (60 Hz, 40 mA, 0.2 s); format: in vivo; conditions: for EC50: Compound A PO 0.5 h alone
Protocol: The efficacy of Compound A and its pharmacological interaction with Lacosamide was evaluated after oral dosing in the mouse maximal electroshock seizure (AC-MES) assay.
The objective of these studies was to characterize the dose-dependent anticonvulsant activity of Compound A and its pharmacological interaction with Lacosamide in the AC-MES assay in mice after a single oral administration of the compounds. The AC-MES assay is typically responsive to non-selective sodium channel blockers and potassium channel openers, and has been used as a translational animal model for partial onset seizures.
The anticonvulsant efficacy of Compound A and Lacosamide, and the effect of combining Compound A with Lacosamide were tested in the AC-MES assay in male CF-1 mice following a single PO dose. Plasma and brain samples were obtained to understand the relationship between drug concentration and efficacy.
AC-MES Assay: The MES test has been extensively used in the search for anticonvulsant substances (Piredda et al., Löscher et al., and White et al.). The MES test is considered a model for generalized tonic-clonic (GTC) seizures and provides an indication of a compound's ability to prevent seizure spread. In the AC-MES model, an electroshock of alternating current (60 Hz, 40 mA) was delivered for 0.2 seconds by corneal electrodes (HSE-HA Rodent Shocker, Harvard Apparatus, model no: 73-0105). CF-1 mice were dosed PO (according to Standard Operating Procedure (SOP) TECH-006) with vehicle or Compound A 0.5 hours before the electroshock assay Immediately prior to the electroshock stimulation, the animals' eyes were anesthetized with a topical application of 0.5% Alcaine solution (proparacaine hydrochloride, one drop per eye). Mice were then restrained, the corneal electrodes applied, and the shock administered. In naïve animals, the seizure is characterized by an initial generalized tonic seizure with hindlimb tonic extensor component. An animal is considered protected from MES-induced seizures upon abolition of the hindlimb tonic extensor component of the seizure and is then scored “0”. […] Mice were euthanized immediately after an initial seizure score assessment following the electroshock for plasma and brain collection.
Data Processing and Analysis: All statistics were calculated using GraphPad Prism version 8 software. Concentration response curves were generated using the Hill Langmuir equation:
Y=B+(T−B)×x^n/(IC50^n+x^n), Equation 1
where: • B=bottom, set as 0. • T=top, set as 1. • n=the Hill coefficient, constrained to less than zero. • IC50=concentration of a compound required for 50% inhibition in vitro.
All group data is expressed as mean. Between-group differences were analyzed using Kruskal-Wallis followed by Dunn's multiple comparison test.
Plasma and brain samples were obtained to understand the relationship between drug concentration and efficacy.
as §1
Sample concentration determination and Data Processing and Analysis in Example 4 was identical to Example 2.

[3] = Study 2A, Compound A 1 mg/kg PO, 0.5 h
[4] = Study 2A, Compound A 5 mg/kg PO, 0.5 h
[5] = Study 2A, Compound A 10 mg/kg PO, 0.5 h
[6] = Study 2B, Compound A 5 mg/kg PO, 0.5 h
[7] = Study 2B, Compound A 7.5 mg/kg PO, 0.5 h
[8] = Study 2B, Compound A 10 mg/kg PO, 0.5 h
[9] = Study 2C, Compound A 3 mg/kg PO, 0.5 h, alone
[10] = dosed in combination with Cenobamate vs alone
[11] = Study 2A, Lacosamide 6 mg/kg PO, 2 h
[12] = Study 2A, Lacosamide 8 mg/kg PO, 2 h
[13] = Study 2B, Lacosamide 10 mg/kg PO, 2 h
[14] = Study 2C, Lacosamide 10 mg/kg PO, 2 h, alone
[15] = Study 2D, Lacosamide 6 mg/kg PO, 2 h
[16] = Study 2D, Lacosamide 20 mg/kg PO, 2 h

SMILES: NC(=O)O[C@@H](Cn1ncnn1)c1ccccc1Cl [Cenobamate, reference compound]
- Fraction with Behavioral Signs ([1]; Study 4D, Cenobamate 3 mg/kg single oral dose): 0/8
- Fraction with Behavioral Signs ([1]; Study 4D, Cenobamate 10 mg/kg single oral dose): 0/8
- Fraction with Behavioral Signs ([1]; Study 4D, Cenobamate 30 mg/kg single oral dose): 0/8
- Fraction with Behavioral Signs ([1]; Study 4E, Cenobamate 3 mg/kg single oral dose): 0/8
- Fraction with Behavioral Signs ([1]; Study 4E, Cenobamate 5 mg/kg single oral dose): 0/8
- Fraction with Behavioral Signs ([1]; Study 4E, Cenobamate 7.5 mg/kg single oral dose): 0/8
- Fraction with Behavioral Signs ([1]; Study 4F, Cenobamate 5 mg/kg PO alone): 0/8
- fraction of animals seizing ([2]; Cenobamate 7.5 mg/kg PO, 2 h, alone): 3/7
- fraction of animals seizing ([2]; Cenobamate 10 mg/kg PO, 2 h, alone): 1/8
- fraction of animals seizing ([2]; Cenobamate 30 mg/kg PO, 2 h, alone): 0/8
- fraction of animals seizing ([2]; Cenobamate lower doses of 3 and 5 mg/kg PO, 2 h, alone): 7/8
- Fraction Seizing ([2]; Study 4D, Cenobamate 3 mg/kg single oral dose, 2 h pre-treatment, vehicle 8/8): 8/8
- Fraction Seizing ([2]; Study 4D, Cenobamate 10 mg/kg single oral dose, 2 h pre-treatment, vehicle 8/8): 1/8
- Fraction Seizing ([2]; Study 4D, Cenobamate 30 mg/kg single oral dose, vehicle 8/8): 0/8
- Fraction Seizing ([2]; Study 4E, Cenobamate 3 mg/kg single oral dose, 2 h pre-treatment, vehicle 8/8): 6/7
- Fraction Seizing ([2]; Study 4E, Cenobamate 5 mg/kg single oral dose, 2 h pre-treatment, vehicle 8/8): 6/7
- Fraction Seizing ([2]; Study 4E, Cenobamate 7.5 mg/kg single oral dose, 2 h pre-treatment, vehicle 8/8): 3/8
- fraction of animals seizing ([2]; Study 4F, Cenobamate 5 mg/kg PO, 2 h, alone): 8/8
- Fraction Seizing ([2]; Study 4F, Cenobamate 5 mg/kg PO alone, 2 h pre-treatment, vehicle 8/8): 8/8

SMILES: Cc1cc(N2CCc3cc(F)ccc3C2)cc(C)c1NC(=O)CC(C)(C)C [Compound A, N-[4-(6-fluoro-3,4-dihydro-1H-isoquinolin-2-yl)-2,6-dimethylphenyl]-3,3-dimethylbutanamide]
- Fraction with Behavioral Signs [1, 3]: 0/8
- Fraction with Behavioral Signs [1, 4]: 0/8
- Fraction with Behavioral Signs [1, 5]: 1/8
- plasma concentration of individual mouse showing behavioral signs (tremors, decreased activity, splayed hindlimbs) ([1]; Study 2A, Compound A 10 mg/kg group, 10 mg/kg): 390 nM
- Fraction with Behavioral Signs [1, 6]: 0/8
- Fraction with Behavioral Signs [1, 7]: 1/7
- plasma concentration of individual mouse showing behavioral signs (tremors, decreased activity, splayed hindlimbs) ([1]; Study 2B, Compound A 7.5 mg/kg group, 7.5 mg/kg): 750 nM
- Fraction with Behavioral Signs [1, 8]: 2/9
- plasma concentration of individual mouse showing behavioral signs (tremors, decreased activity, splayed hindlimbs) ([1]; Study 2B, Compound A 10 mg/kg group, two mice, 10 mg/kg): 516 nM and 610 nM and 520 nM
- Fraction with Behavioral Signs [1, 9]: 0/8
- plasma concentration of individual mouse showing behavioral signs (tremors, decreased activity, splayed hindlimbs) ([1]; Study 4A, Compound A 10 mg/kg group): 390 nM
- Behavioral Signs (fraction) ([1]; Study 4A, Compound A 1 mg/kg single oral dose): 0/8
- Behavioral Signs (fraction) ([1]; Study 4A, Compound A 5 mg/kg single oral dose): 0/8
- Behavioral Signs (fraction) ([1]; Study 4A, Compound A 10 mg/kg single oral dose): 1/8
- plasma concentration of individual mouse showing behavioral signs (tremors, decreased activity, splayed hindlimbs) ([1]; Study 4B, Compound A 7.5 mg/kg group): 750 nM
- plasma concentration of individual mouse showing behavioral signs (tremors, decreased activity, splayed hindlimbs) ([1]; Study 4B, Compound A 10 mg/kg group, two mice, 10 mg/kg): 610 nM and 520 nM
- Fraction with Behavioral Signs ([1]; Study 4B, Compound A 5 mg/kg single oral dose): 0/8
- Fraction with Behavioral Signs ([1]; Study 4B, Compound A 7.5 mg/kg single oral dose): 1/7
- Fraction with Behavioral Signs ([1]; Study 4B, Compound A 10 mg/kg single oral dose): 2/9
- Fraction with Behavioral Signs ([1]; Study 4C, Compound A 3 mg/kg single oral dose): 0/8
- Fraction with Behavioral Signs ([1]; Study 4F, Compound A 2 mg/kg PO alone): 0/8
- EC50 ([2]; composite of Studies 4A, 4B, 4C, 4F, read-out: EC50 for plasma): 296 nM
- EC50 ([2]; Mus musculus, po, 0.5 h, composite of Studies 2A, 2B, 2C, read-out: EC50 for brain tissue): 471 nM
- EC50 ([2]; Mus musculus, po, 0.5 h, composite of Studies 2A, 2B, 2C, read-out: EC50 for plasma): 300 nM
- EC50 ([2]; Mus musculus, po, 0.5 h, composite of Studies 4A, 4B, 4C, 4F, read-out: EC50 for brain tissue): 470 nM
- EC50 ([2]; Mus musculus, po, 0.5 h, composite of Studies 4A, 4B, 4C, 4F, read-out: EC50 for plasma): 300 nM
- Fraction Seizing [2, 3]: 8/8
- Fraction Seizing [2, 4]: 7/8
- Fraction Seizing [2, 5]: 3/8
- Fraction Seizing [2, 6]: 0/8
- Fraction Seizing [2, 7]: 0/7
- Fraction Seizing [2, 8]: 1/9
- Fraction Seizing [2, 9]: 2/8
- fraction of animals seizing ([2]; Study 4A, Compound A 1 mg/kg PO, 0.5 h): 8/8
- fraction of animals seizing ([2]; Study 4A, Compound A 5 mg/kg PO, 0.5 h): 7/8
- fraction of animals seizing ([2]; Study 4A, Compound A 10 mg/kg PO, 0.5 h): 3/8
- Fraction Seizing ([2]; Study 4A, Compound A 1 mg/kg single oral dose, 30 min pre-treatment, vehicle 8/8): 8/8
- Fraction Seizing ([2]; Study 4A, Compound A 5 mg/kg single oral dose, 30 min pre-treatment, vehicle 8/8): 7/8
- Fraction Seizing ([2]; Study 4A, Compound A 10 mg/kg single oral dose, 30 min pre-treatment, vehicle 8/8): 3/8
- fraction of animals seizing ([2]; Study 4B, Compound A 5 mg/kg PO, 0.5 h): 0/8
- fraction of animals seizing ([2]; Study 4B, Compound A 10 mg/kg PO, 0.5 h): 1/9
- Fraction Seizing ([2]; Study 4B, Compound A 5 mg/kg single oral dose, vehicle 8/8): 0/8
- Fraction Seizing ([2]; Study 4B, Compound A 7.5 mg/kg single oral dose, vehicle 8/8): 0/7
- Fraction Seizing ([2]; Study 4B, Compound A 10 mg/kg single oral dose, vehicle 8/8): 1/9
- fraction of animals seizing ([2]; Study 4C, Compound A 3 mg/kg PO, 0.5 h): 2/8
- Fraction Seizing ([2]; Study 4C, Compound A 3 mg/kg single oral dose, vehicle 8/8): 2/8
- fraction of animals seizing ([2]; Study 4F, Compound A 2 mg/kg PO, 0.5 h, alone): 5/8
- Fraction Seizing ([2]; Study 4F, Compound A 2 mg/kg PO alone, 0.5 h pre-treatment, vehicle 8/8): 5/8
- increase in the potency of Compound A, brain tissue [2, 10]: 14.2 fold
- increase in the potency of Compound A, plasma [2, 10]: 33.3 fold

SMILES: COC[C@@H](NC(C)=O)C(=O)NCc1ccccc1 [Lacosamide, reference compound]
- Fraction with Behavioral Signs [1, 11]: 0/8
- Fraction with Behavioral Signs [1, 12]: 0/8
- Fraction with Behavioral Signs [1, 13]: 0/8
- Fraction with Behavioral Signs [1, 14]: 0/8
- Fraction with Behavioral Signs [1, 15]: 0/8
- Fraction with Behavioral Signs [1, 16]: 0/8
- Fraction Seizing [2, 11]: 8/8
- Fraction Seizing [2, 12]: 8/8
- Fraction Seizing [2, 13]: 8/8
- Fraction Seizing [2, 14]: 6/8
- Fraction Seizing [2, 15]: 8/8
- Fraction Seizing [2, 16]: 3/8
